Experimental findings from ChEMBL document CHEMBL3880422, “C-terminal modified oxamyl dipeptides as inhibitors of the ICE/ced-3 family of cysteine proteases” (2007) are described below.

The target of one test is Caspase-8 (Homo sapiens) (UniProt Q14790). As to the kind of experiment: Inhibition of recombinant MCH5 (unknown origin) assessed as ratio of irreversible rate constant K3 to dissociation constant of the reversible binding step Ki pre-incubated for 60 mins with Acetyl-Tyr-Val-Ala-Asp-amino-4-methylcoumarin substrate followed by enzyme addition by fluorescence based assay.
Caspase-8 (Homo sapiens), sequence (Q14790 217-374 limits assumed): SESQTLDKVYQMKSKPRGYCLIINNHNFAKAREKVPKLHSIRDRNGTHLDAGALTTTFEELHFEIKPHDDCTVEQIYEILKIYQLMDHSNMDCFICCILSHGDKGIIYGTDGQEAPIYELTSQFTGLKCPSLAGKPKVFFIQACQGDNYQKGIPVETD
Caspase-8 (Homo sapiens), sequence (Q14790 385-479 limits assumed): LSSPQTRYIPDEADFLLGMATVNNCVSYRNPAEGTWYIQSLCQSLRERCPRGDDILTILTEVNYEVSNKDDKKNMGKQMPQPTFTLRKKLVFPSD

Another test addresses T1, Caspase-3 (Homo sapiens) (UniProt P42574).
T1 sequence (whole entry): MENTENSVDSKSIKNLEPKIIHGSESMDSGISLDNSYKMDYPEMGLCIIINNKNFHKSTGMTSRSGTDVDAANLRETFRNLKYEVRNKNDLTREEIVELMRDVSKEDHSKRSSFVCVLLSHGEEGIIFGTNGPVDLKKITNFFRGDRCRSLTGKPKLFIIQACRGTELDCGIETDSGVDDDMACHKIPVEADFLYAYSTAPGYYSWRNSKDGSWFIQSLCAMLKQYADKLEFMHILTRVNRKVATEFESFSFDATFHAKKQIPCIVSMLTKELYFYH
The test can be described thus: Inhibition of recombinant CPP32 (unknown origin) assessed as ratio of irreversible rate constant K3 to dissociation constant of the reversible binding step Ki pre-incubated for 60 mins with Acetyl-Tyr-Val-Ala-Asp-amino-4-methylcoumarin substrate followed by enzyme addition by fluorescence based assay.

A further test has as its target T2, Caspase-1 (Mus musculus) (UniProt P29452).
T2 sequence (whole entry): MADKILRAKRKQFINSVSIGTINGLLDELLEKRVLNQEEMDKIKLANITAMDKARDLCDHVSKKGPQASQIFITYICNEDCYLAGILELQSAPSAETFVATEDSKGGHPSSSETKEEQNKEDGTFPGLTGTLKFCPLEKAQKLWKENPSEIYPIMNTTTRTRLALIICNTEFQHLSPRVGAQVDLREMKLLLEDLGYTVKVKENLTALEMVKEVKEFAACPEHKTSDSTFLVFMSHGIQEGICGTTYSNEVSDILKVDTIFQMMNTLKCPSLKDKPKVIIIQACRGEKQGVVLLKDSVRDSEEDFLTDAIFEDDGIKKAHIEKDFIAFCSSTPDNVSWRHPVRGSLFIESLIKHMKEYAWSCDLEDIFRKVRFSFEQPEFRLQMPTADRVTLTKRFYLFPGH
As to the kind of experiment: Inhibition of mouse recombinant ICE assessed as ratio of irreversible rate constant K3 to dissociation constant of the reversible binding step Ki pre-incubated for 60 mins with Acetyl-Tyr-Val-Ala-Asp-amino-4-methylcoumarin substrate followed by enzyme addition by fluorescence based assay.

A further test addresses T3, Caspase-6 (Homo sapiens) (UniProt P55212).
T3 sequence (whole entry): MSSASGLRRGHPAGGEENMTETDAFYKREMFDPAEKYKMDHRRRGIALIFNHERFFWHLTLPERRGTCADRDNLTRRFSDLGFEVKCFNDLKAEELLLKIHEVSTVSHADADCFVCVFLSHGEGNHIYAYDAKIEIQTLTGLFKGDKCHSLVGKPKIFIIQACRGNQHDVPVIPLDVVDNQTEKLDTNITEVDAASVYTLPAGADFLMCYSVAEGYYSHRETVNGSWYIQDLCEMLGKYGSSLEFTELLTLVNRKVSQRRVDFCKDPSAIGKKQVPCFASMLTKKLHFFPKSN
As to the kind of experiment: Inhibition of recombinant MCH2 (unknown origin) assessed as ratio of irreversible rate constant K3 to dissociation constant of the reversible binding step Ki pre-incubated for 60 mins with Acetyl-Tyr-Val-Ala-Asp-amino-4-methylcoumarin substrate followed by enzyme addition by fluorescence based assay.

`CC(C)[C@H](NC(=O)C(=O)Nc1c(F)cccc1F)C(=O)N[C@@H](CC(=O)O)C(=O)COc1c(F)c(F)cc(F)c1F`: the Ratio on Caspase-8 (Homo sapiens) stood at 1.83e+06 M⁻¹ s⁻¹; on Caspase-3 (Homo sapiens), 62900 M⁻¹ s⁻¹; at Caspase-1 (Mus musculus) it was 2.68e+06 M⁻¹ s⁻¹; at Caspase-6 (Homo sapiens), 1.08e+06 M⁻¹ s⁻¹.

Take `C[C@H](NC(=O)C(=O)Nc1ccc(F)cc1)C(=O)N[C@@H](CC(=O)O)C(=O)COC(=O)c1c(Cl)cccc1Cl`: the Ratio on Caspase-8 (Homo sapiens) is 18700 M⁻¹ s⁻¹; on Caspase-3 (Homo sapiens), 22700 M⁻¹ s⁻¹; at Caspase-1 (Mus musculus), 11700 M⁻¹ s⁻¹; on Caspase-6 (Homo sapiens) it was 18600 M⁻¹ s⁻¹.

Take `CC(C)[C@H](NC(=O)C(=O)Nc1c(F)c(F)nc(F)c1F)C(=O)N[C@@H](CC(=O)O)C(=O)COc1c(F)c(F)cc(F)c1F`: the Ratio is 389000 M⁻¹ s⁻¹ at Caspase-8 (Homo sapiens), 153000 M⁻¹ s⁻¹ on Caspase-3 (Homo sapiens), 1.22e+06 M⁻¹ s⁻¹ on Caspase-1 (Mus musculus) and 170000 M⁻¹ s⁻¹ at Caspase-6 (Homo sapiens).

Consider `C[C@H](NC(=O)C(=O)Nc1cc(C(F)(F)F)ccc1N1CCOCC1)C(=O)N[C@@H](CC(=O)O)C(=O)COP(=O)(c1ccccc1)c1ccccc1`, for which the Ratio at Caspase-8 (Homo sapiens) came to 441000 M⁻¹ s⁻¹; on Caspase-3 (Homo sapiens), 100000 M⁻¹ s⁻¹; at Caspase-1 (Mus musculus), 369000 M⁻¹ s⁻¹; on Caspase-6 (Homo sapiens), 98500 M⁻¹ s⁻¹.

Regarding `CC(C)[C@H](NC(=O)C(=O)Nc1cccc2ccccc12)C(=O)NC(CC(=O)O)C(=O)CF` (mixture of isomers), the Ratio at Caspase-8 (Homo sapiens) turned out to be 1.16e+06 M⁻¹ s⁻¹; at Caspase-3 (Homo sapiens), 413000 M⁻¹ s⁻¹; at Caspase-1 (Mus musculus), 2.17e+06 M⁻¹ s⁻¹; at Caspase-6 (Homo sapiens), 199000 M⁻¹ s⁻¹.

For the compound `CC(C)[C@H](NC(=O)C(=O)Nc1nc2ccccc2[nH]1)C(=O)N[C@@H](CC(=O)O)C(=O)COc1c(F)c(F)cc(F)c1F`, the Ratio was 20800 M⁻¹ s⁻¹ at Caspase-8 (Homo sapiens), 3130 M⁻¹ s⁻¹ at Caspase-3 (Homo sapiens), 27400 M⁻¹ s⁻¹ on Caspase-1 (Mus musculus) and 1840 M⁻¹ s⁻¹ at Caspase-6 (Homo sapiens).

Consider `C[C@H](NC(=O)C(=O)NCc1ccccc1)C(=O)N[C@@H](CC(=O)O)C(=O)COC(=O)c1c(Cl)cccc1Cl`, for which the Ratio at Caspase-8 (Homo sapiens) was determined as 203000 M⁻¹ s⁻¹; at Caspase-3 (Homo sapiens), 600000 M⁻¹ s⁻¹; at Caspase-1 (Mus musculus), 59100 M⁻¹ s⁻¹; at Caspase-6 (Homo sapiens) it was 244000 M⁻¹ s⁻¹.
